Assay results as given in publication PMC3070799 (Neuropharmacology, 2011).

What was measured:
[1] = biological target: T1, mouse 5-HT3A (Mus musculus, UniProt P23979); assay: Granisetron competition binding
T1 construct: expressed in transfected cells
T1 sequence (P23979 24-483 isoform P23979-2 limits assumed): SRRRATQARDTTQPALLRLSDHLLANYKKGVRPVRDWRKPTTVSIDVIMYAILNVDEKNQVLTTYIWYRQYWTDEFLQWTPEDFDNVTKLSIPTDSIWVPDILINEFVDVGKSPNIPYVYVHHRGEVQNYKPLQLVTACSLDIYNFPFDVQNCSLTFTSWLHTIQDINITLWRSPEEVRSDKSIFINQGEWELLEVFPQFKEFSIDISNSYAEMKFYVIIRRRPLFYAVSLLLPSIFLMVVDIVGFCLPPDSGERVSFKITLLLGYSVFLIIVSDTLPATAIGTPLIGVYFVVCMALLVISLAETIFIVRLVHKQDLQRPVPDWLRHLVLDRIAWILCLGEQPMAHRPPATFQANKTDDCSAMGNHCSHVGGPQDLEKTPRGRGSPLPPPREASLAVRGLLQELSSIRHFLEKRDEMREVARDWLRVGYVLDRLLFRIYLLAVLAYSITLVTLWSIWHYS
Method: (§1) Competition binding (8 point) was performed on at least three separate plates of transfected cells. […] Reactions were incubated for at least 1 h at 4 °C and terminated by vacuum filtration using a Brandel cell harvester onto GF/B filters pre-soaked in 0.3% polyethyleneimine. Radioactivity was determined by scintillation counting using a Beckman BCLS6500 (Fullerton, California, USA). Data were analysed by iterative curve fitting (GraphPad Prism v3.02) according to the equation:(5) BL=Bmin+Bmax−Bmin/1+10^nH(logL50−logL) where L is the concentration of ligand present; BL is the binding in the presence of ligand concentration L; Bmin is the binding when L = 0; Bmax is the binding when L = ∞, L50 is the concentration of L which gives a binding equal to (Bmax + Bmin)/2; and nH is the Hill coefficient. Results are presented as mean ± S.E.M.. Statistical analysis was performed using ANOVA in conjunction with a Dunnett’s post-hoc test.

[2] = biological target: T2, mouse 5-HT3AB (Mus musculus, UniProt P23979+Q9JHJ5); assay: Granisetron competition binding
T2 construct: expressed in transfected cells
T2 sequence (P23979 24-483 isoform P23979-2 limits assumed): T1 sequence (P23979 24-483 isoform P23979-2 limits assumed)
T2 sequence (Q9JHJ5 22-437): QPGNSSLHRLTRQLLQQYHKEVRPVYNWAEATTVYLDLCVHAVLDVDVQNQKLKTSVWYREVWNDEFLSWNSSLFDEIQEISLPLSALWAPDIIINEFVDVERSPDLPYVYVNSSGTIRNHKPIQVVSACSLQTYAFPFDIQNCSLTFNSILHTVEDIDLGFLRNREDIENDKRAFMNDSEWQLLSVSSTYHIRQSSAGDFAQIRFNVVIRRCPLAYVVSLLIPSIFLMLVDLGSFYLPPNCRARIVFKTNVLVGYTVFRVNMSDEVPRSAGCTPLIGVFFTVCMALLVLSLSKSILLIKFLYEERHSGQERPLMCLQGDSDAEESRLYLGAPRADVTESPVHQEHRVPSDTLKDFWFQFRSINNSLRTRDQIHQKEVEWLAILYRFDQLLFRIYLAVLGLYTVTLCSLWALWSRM
Method: as §1

## CC(C)(C)[C@]1(O)CC2OC(=O)CC23C(=O)OC2OC(=O)[C@H](O)C231 (stereo partly drawn) [BB, bilobalide]
[1]; compound 2.5 mM
  Displacement of granisetron (0.5 nM): not displaced
[2]; compound 2.5 mM
  Displacement of granisetron (0.5 nM): not displaced

## C=C(C)[C@@H]1[C@H]2OC(=O)[C@@H]1[C@]1(O)C[C@H]3O[C@]34C(=O)O[C@H]2[C@]14C [PXN, picrotoxinin]
[1]; compound 5 mM
  Displacement of granisetron (0.5 nM): not displaced
[2]; compound 5 mM
  Displacement of granisetron (0.5 nM): not displaced

## ginkgolide B [GB]
[1]; compound 2.5 mM
  Displacement of granisetron (0.5 nM): not displaced
[2]; compound 2.5 mM
  Displacement of granisetron (0.5 nM): not displaced
